Read-outs that look alike come from different tables or passages of the source.
Tests used:
human recombinant HDAC1 = target: T1, human recombinant HDAC1 (Homo sapiens, UniProt Q13547); experiment: HDAC1 inhibition, fluorometric method (Enzo Fluorometric Drug Discovery Assay Kit); format: biochemical; conditions: read-out: Inhibitory activity IC50 on HDAC1
T1 construct: purchased Enzo Life Sciences, Inc
Protocol: The inhibitory activities of the synthesized compounds were determined against CK2 and HDAC1 and the IC50 values are collected in Table 1. The activity towards human recombinant HDAC1 was tested using a fluorometric method. CK2 inhibitory activity was determined by a radiometric method, using a short peptide ([…]) as a substrate.
15 µL of HDAC1 (0.4 µg/well) or HDAC6 (0.5 µg/well) were incubated at 37 °C for 30 minutes with 10 µL of inhibitor diluted in 5% DMSO and 25 µL of fluorogenic substrate (0.05 µL/well of 5 mM solution). Reactions were stopped with the developer and trichostatin A, diluted in buffer without BSA, and the plate was incubated at 30 °C for 45 min, followed by measuring the fluorescence (Ex. 360 nm, Em. 450 nm, Fluoroskan, Thermo Scientific).

human recombinant CK2α = target: T2, human recombinant CK2α (Homo sapiens, UniProt P68400); experiment: CK2 inhibition, radiometric method with peptide substrate […]; format: biochemical; conditions: radiometric method, 20 µM ATP; read-out: Inhibitory activity IC50 on CK2
T2 construct: GST; made in house; host or cells: bacteria
Protocol: The activity towards human recombinant HDAC1 was tested using a fluorometric method. CK2 inhibitory activity was determined by a radiometric method, using a short peptide ([…]) as a substrate.
Recombinant human protein kinase GST-CK2 was produced in bacteria and purified as described elsewhere. […] The reaction buffer contained 20 µM [γ-32P] ATP (specific radioactivity 300–1000 cpm/pmol), 15 mM Mg^2+, 20 mM Tris–HCl pH 7.5, and 6 mM 2-mercaptoethanol. 10 µL of the assay mixture was spotted onto a square (1 cm/1 cm) of Whatman P81 paper and allowed to dry. Each square was immersed in cold 0.5% phosphoric acid, and washed three times during 10 min, allowed to dry and transferred into a vessel containing Opti-Phase liquid (scintillation solution) and radioactivity was quantified using a scintillation counter (MicroBeta, Perkin Elmer) by Cerenkov counting. All experiments were performed in triplicate. IC50 values were calculated using GraphPad Prism (version 4.0) software.

[1] = tested on: HL-60/adr (doxorubicin-resistant, MRP-1 overexpression); experiment: Cytotoxicity, trypan blue exclusion assay, 24 h; format: cell-based; conditions: Homo sapiens, HL60/ADR
Excerpt: (§1) Taking into consideration the high abundance of CK2 kinase in leukemia and lymphomas, the ability of selected CK2-HDAC dual inhibitors to circumvent MDR was investigated in human leukemia cells of HL-60 line and its doxorubicin-resistant (HL-60/adr, MRP-1 overexpression) and vincristine-resistant (HL-60/vinc, P-gp overexpression) sublines.
(§2) Statistical significance was set at P ≤ 0.05.

[2] = tested on: HL-60/vinc (vincristine-resistant, P-gp overexpression); experiment: Cytotoxicity, trypan blue exclusion assay, 24 h; format: cell-based; conditions: Homo sapiens, HL60/vinc
Excerpt: as §1, §2

[3] = tested on: leukemia cells of HL-60 line; experiment: Cytotoxicity, trypan blue exclusion assay, 24 h; format: cell-based; conditions: Homo sapiens
Excerpt: as §1, §2

Jurkat T-leukemia cells = experiment: Cytotoxicity, trypan blue exclusion assay, 24 h; conditions: Homo sapiens
Protocol: (§3) Walter Berger, Institute of Cancer Research, Vienna Medical University. Human embryonal kidney cells of HEK293 line were obtained from cell culture collection of R.E. Kavetsky Institute of Experimental Pathology, Oncology and Radiobiology, National Academy of Sciences of Ukraine (Kyiv, Ukraine).
(§4) Cells were seeded (5 × 10^5/mL for leukemia cells and 1 × 10^5/mL for carcinoma cells) into 24-well tissue culture plates (Greiner Bio-one, Frickenhausen, Germany) and were permitted to adhere and grow for 24 h before the experiment. Short-term (24 h) cytotoxic effect of antitumor drugs was studied under the Evolution 300 Trino microscope (Delta Optical, Nowe Osiny, Poland) after cell staining with trypan blue dye (0.1%).
(§5) Final concentration of DMSO in cell culture was 0.5% or less.
(§6) All experiments were performed in triplicate and repeated three times. Statistical analysis of data was conducted in GraphPad Prism 7.0 Software (GraphPad Software, Inc.) using Student’s t test. Statistical significance was set at P ≤ 0.05. Evaluation of LC50 values of each compound was done by built-in functions of GraphPad Prism (non-linear regression, curve fit, [Inhibitor] vs. normalized response - Variable slope).

[4] = tested on: breast adenocarcinoma cells of MCF-7 line; experiment: Cytotoxicity, trypan blue exclusion assay, 24 h; conditions: Homo sapiens
Protocol: as §3, §4, §5, §6

[5] = tested on: HCT-116 colon carcinoma cells; experiment: Cytotoxicity, trypan blue exclusion assay, 24 h; conditions: Homo sapiens
Protocol: as §3, §4, §5, §6

[6] = Cytotoxicity, trypan blue exclusion assay, 24 h (pseudonormal cells); conditions: human, HEK293 embryonic kidney cells (pseudonormal)
Protocol: as §3, §4, §5, §6

[7] = Table 2, trypan blue, 24 h, M ± SD, read-out: LC50 Values of Compounds for Cell Line, HL-60/adr
[8] = supplement Table 4S, M±SD, read-out: LC50 values of compounds for cell line, HL-60/adr
[9] = Table 2, trypan blue, 24 h, M ± SD, read-out: LC50 Values of Compounds for Cell Line, HL-60/vinc
[10] = supplement Table 4S, M±SD, read-out: LC50 values of compounds for cell line, HL-60/vinc
[11] = Table 2, trypan blue, 24 h, M ± SD, read-out: LC50 Values of Compounds for Cell Line, HL-60
[12] = supplement Table 4S, M±SD, read-out: LC50 values of compounds for cell line, HL-60
[13] = 24 h, read-out: LC50 Values of Compounds for Cell Line, Jurkat
[14] = read-out: LC50 values of compounds for cell line, Jurkat
[15] = MCF7, 24 h, read-out: LC50 Values of Compounds for Cell Line, MCF-7
[16] = HCT-116, 24 h, read-out: LC50 Values of Compounds for Cell Line, HCT-116
[17] = LC50 Values of Compounds for Cell Line, HEK293, Table 2, trypan blue, 24 h, M ± SD
[18] = LC50 values of compounds for cell line, HEK293, supplement Table 4S, M±SD

T2 sequence (P68400 whole entry): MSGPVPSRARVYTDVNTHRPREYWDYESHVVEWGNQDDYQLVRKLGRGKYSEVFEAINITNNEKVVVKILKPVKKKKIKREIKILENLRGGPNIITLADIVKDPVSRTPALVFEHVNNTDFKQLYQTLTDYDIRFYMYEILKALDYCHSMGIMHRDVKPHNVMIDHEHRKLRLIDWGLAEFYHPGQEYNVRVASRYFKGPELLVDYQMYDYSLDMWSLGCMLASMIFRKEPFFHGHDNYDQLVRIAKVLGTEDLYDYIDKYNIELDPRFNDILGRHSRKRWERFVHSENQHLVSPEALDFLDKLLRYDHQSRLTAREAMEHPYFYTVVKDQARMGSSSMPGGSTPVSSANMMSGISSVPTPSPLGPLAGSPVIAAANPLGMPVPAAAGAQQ
T1 sequence (Q13547 whole entry): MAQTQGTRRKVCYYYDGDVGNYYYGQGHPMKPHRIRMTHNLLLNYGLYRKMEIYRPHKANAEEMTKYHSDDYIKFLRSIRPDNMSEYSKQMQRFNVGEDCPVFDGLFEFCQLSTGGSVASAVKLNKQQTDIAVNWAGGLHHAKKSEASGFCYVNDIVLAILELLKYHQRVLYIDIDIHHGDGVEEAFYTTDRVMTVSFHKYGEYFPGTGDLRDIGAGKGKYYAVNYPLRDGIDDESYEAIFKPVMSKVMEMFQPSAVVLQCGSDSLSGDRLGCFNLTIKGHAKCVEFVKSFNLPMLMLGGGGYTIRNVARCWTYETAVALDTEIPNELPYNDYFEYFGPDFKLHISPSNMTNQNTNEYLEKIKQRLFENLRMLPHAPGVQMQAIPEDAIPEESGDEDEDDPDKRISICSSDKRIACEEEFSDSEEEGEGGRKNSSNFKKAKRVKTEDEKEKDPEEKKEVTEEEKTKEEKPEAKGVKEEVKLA

Compound | IC50 (human recombinant HDAC1) [µM] | IC50 (human recombinant CK2α) [µM] | CC50 [1, 7] [µM] | CC50 [1, 8] [µM] | CC50 [2, 9] [µM] | CC50 [2, 10] [µM] | CC50 [3, 11] [µM] | CC50 [3, 12] [µM] | CC50 (Jurkat T-leukemia cells; [13]) [µM] | CC50 (Jurkat T-leukemia cells; [14]) [µM] | CC50 [4, 15] [µM] | CC50 ([4]; MCF7, read-out: LC50 values of compounds for cell line, MCF-7) [µM] | CC50 [5, 16] [µM] | CC50 ([5]; HCT-116, read-out: LC50 values of compounds for cell line, HCT-116) [µM] | CC50 at 24 h [6, 17] [µM] | CC50 at 24 h [6, 18] [µM]
CN(C)c1nc2c(Br)c(Br)c(Br)c(Br)c2n1CCc1cn(CCC(=O)NO)nn1 [Compound 7c, N-Hydroxy-3-(4-(2-(4,5,6,7-tetrabromo-2-(dimethylamino)-1H-benzo[d]imidazol-1-yl)ethyl)-1H-1,2,3-triazol-1-yl)propanamide] | 13.3 | 12.5 | 18.6 ± 2.09 | 16.2 | 49.5 ± 9.47 | 17.6 | 24 ± 8.66 | 7.67 | 16.5 ± 2.33 | 10.7 | 27.8 ± 6.06 | 15.7 | 16.9 ± 3.9 | 4.22 | 42.7 ± 8.65 | 23.3
O=C(NO)c1ccc(Cn2nc3c(Br)c(Br)c(Br)c(Br)c3n2)cc1 [Compound 15a, N-Hydroxy-4-((tetrabromo-2H-benzo[d][1,2,3]triazol-2-yl)methyl)benzamide] | 8.5 | 15 | 32.4 ± 3.44 | > 30 | 36.6 ± 4.74 | > 30 | 34.4 ± 7.89 | > 30 | 43.6 ± 16.7 | > 30 | 13.7 ± 2.67 | – | 8.67 ± 1.02 | – | 33.7 ± 7.52 | > 30
CN(C)c1nc2c(Br)c(Br)c(Br)c(Br)c2n1Cc1ccc(C(=O)NO)cc1 [Compound 19, N-Hydroxy-4-((4,5,6,7-tetrabromo-2-(dimethylamino)-1H-benzo[d]imidazol-1-yl)methyl)benzamide] | 9.45 | 7.15 | 32.3 ± 5.32 | > 30 | 21.7 ± 3.39 | 26.6 | – | > 30 | 24.9 ± 3.8 | 21.8 | 13.6 ± 0.78 | – | 11.3 ± 1.01 | – | 33.4 ± 11.8 | 24.5
